Test results published in patent US20240307484A1 (priority 2023, published 2024).
Read-outs that look alike come from different tables or passages of the source. Numbered stars: 1 amine (or outer) side, 2 acyl side, 3 side chain; on linkers, the order of the positions; unused ones are H or OH. Bridge positions count the residues as written; N and C are the ends. Square brackets hold non-standard residues; d marks the D form. Peptide text beside a SMILES is read from it. I, II: the chains in the order shown. Actinocin(9to1) = Cc1c2oc3c(C)ccc(C(=O)[*:1])c3nc-2c(C(=O)[*:2])c(N)c1=O; NMeV = CN[C@H](C(=O)O)C(C)C; Sar = CNCC(=O)O

Columns and labels:
[1] = tested on: 4T1 cells; assay: Cytotoxicity / synergistic cytotoxic effect test in 4T1 cells; format: cell-based, mouse
From the text: (§1) The cell lines used in the following examples, namely the MDA-MB-231 (human triple-negative breast cancer) cell line, the 4T1 (mouse triple-negative breast cancer) cell line, and the MCF-7 (breast cancer) cell line, are easily obtainable by a person with common knowledge in the art and therefore need not be deposited. The 4T1 cell line is frequently used as a research model for the metastasis of breast cancer and a model for the selection of clinical drugs for breast cancer.
(§2) MDA-MB-231 cells, 4T1 cells, and MCF-7 cells were treated with actinomycin D and doxorubicin in different ratios for 48 hours, before combination indices (CI) were calculated based on cytotoxicity.

[2] = tested on: MDA-MB-231 cells; assay: Cytotoxicity / synergistic cytotoxic effect test in MDA-MB-231 cells; format: cell-based, human
From the text: as §1, §2

[3] = tested on: MCF-7 cells; assay: Cytotoxicity / synergistic cytotoxic effect test in MCF-7 cells; format: cell-based
From the text: as §1, §2

[4] = tested on: 4T1 breast cancer mouse models; assay: Metastasis test in 4T1 breast cancer mouse models; format: in vivo; details: 4T1 mouse model; five weeks, treated every 7 days; cyclophosphamide 5 mg/kg, doxorubicin 0.5 mg/kg, actinomycin D 20 μg/kg
Procedure: 4T1 breast cancer mouse models were created based on common knowledge in the art. The test lasted for five weeks, and the mice in each of the following groups were treated on the 0th, 7th, 14th, 21st, 28th, and 35th day of the test: • Group 1: Without any treatment; • Group 2: With cyclophosphamide administered at a dose of 5 mg/kg: • Group 3: With both cyclophosphamide and doxorubicin administered, the dose of cyclophosphamide being 5 mg/kg, and the dose of doxorubicin being 0.5 mg/kg (equivalent to a clinical dose of 20 mg/m^2 for humans); • Group 4: With actinomycin D administered at a dose of 20 μg/kg (equivalent to a clinical dose of […] for humans); • Group 5: With doxorubicin administered at a dose of 0.5 mg/kg: • Group 6: With both actinomycin D (20 μg/kg) and doxorubicin (0.5 mg/kg) administered; and • Group 7: With both actinomycin D (10 μg/kg) and doxorubicin (0.25 mg/kg) administered, the doses being 0.5 times as high as those for group 6.
Once the test was completed, the mice in each group were sacrificed, and the numbers of breast tumors that had metastasized to the lungs and to the liver (i.e., lung metastatic nodules and liver metastatic nodules) of each group of mice were counted. In addition, lungs and livers were collected from the mice, sectioned, and then stained with hematoxylin and eosin (H&E) stain, as shown in FIG. 20.

[5] = Table 1, 4T1 cells, read-out: IC50 of various chemotherapy drugs against different cancer cells
[6] = Table 1, MDA-MB-231 cells, read-out: IC50 of various chemotherapy drugs against different cancer cells
[7] = Table 1, MCF-7 cells, read-out: IC50 of various chemotherapy drugs against different cancer cells

Row | SMILES | IC50 [1, 5] [nM] | IC50 [2, 6] [nM] | IC50 [3, 7] [nM] | number of liver metastatic nodules [4] | number of lung metastatic nodules [4] | further results
1 | N.N.[Cl][Pt][Cl] [Cisplatin, cisplatin] | 3300 ± 1200 | 37200 ± 5100 | 19100 ± 2200 | – | – | –
2 | Cc1c2oc3c(C)ccc(C(=O)N[C@@H]4C(=O)N[C@H](C(C)C)C(=O)N5CCC[C@H]5C(=O)N(C)CC(=O)N(C)[C@@H](C(C)C)C(=O)O[C@@H]4C)c3nc-2c(C(=O)N[C@@H]2C(=O)N[C@H](C(C)C)C(=O)N3CCC[C@H]3C(=O)N(C)CC(=O)N(C)[C@@H](C(C)C)C(=O)O[C@@H]2C)c(N)c1=O [Actinomycin D, actinomycin D] (I: T[dV]P[Sar][NMeV] / II: T[dV]P[Sar][NMeV]; ester I:1-I:C, II:1-II:C; linker I:N-II:N via Actinocin(9to1)) | – | – | – | increased in comparison with those of group-3 mice | increased in comparison with those of group-3 mice | IC50 ([1]; Mus musculus, 4T1, 48 h): 2.6 nM; IC50 ([1]; Mus musculus, 4T1, read-out: IC50 of various chemotherapy drugs against different cancer cells): 500 ± 40 nM; IC50 ([2]; Homo sapiens, MDA-MB-231, 48 h): 3.3 nM; IC50 ([2]; Homo sapiens, MDA-MB-231, read-out: IC50 of various chemotherapy drugs against different cancer cells): 1100 ± 190 nM; IC50 ([3]; Homo sapiens, MCF7, 48 h): 3.7 nM; IC50 ([3]; Homo sapiens, MCF7, read-out: IC50 of various chemotherapy drugs against different cancer cells): 300 ± 60 nM
3 | O=P1(N(CCCl)CCCl)NCCCO1 (stereo not drawn) [cyclophosphamide] | – | – | – | reduced only slightly | reduced only slightly | –
4 | O=c1[nH]cc(F)c(=O)[nH]1 [5FU] | 5900 ± 300 | > 100000 | 38300 ± 5000 | – | – | –
5 | COc1cccc2c1C(=O)c1c(O)c3c(c(O)c1C2=O)C[C@@](O)(C(=O)CO)C[C@@H]3O[C@H]1C[C@H](N)[C@H](O)[C@H](C)O1 [Doxorubicin, doxorubicin] | – | – | – | significantly less liver metastatic nodules than group-1 mice | approximately the same number of lung metastatic nodules as group-3 mice | IC50 ([1]; Mus musculus, Table 1, 4T1 cells, read-out: IC50 of various chemotherapy drugs against different cancer cells): 2.8 ± 1.1 nM; IC50 ([1]; Mus musculus, Table 2, single drug, 4T1 cells, 48 hours, read-out: IC50): 579 nM; IC50 ([2]; Homo sapiens, Table 1, MDA-MB-231 cells, read-out: IC50 of various chemotherapy drugs against different cancer cells): 6.5 ± 0.9 nM; IC50 ([2]; Homo sapiens, Table 2, single drug, MDA-MB-231 cells, 48 hours, read-out: IC50): 1270 nM; IC50 ([3]; Homo sapiens, MCF7, Table 1, MCF-7 cells, read-out: IC50 of various chemotherapy drugs against different cancer cells): 4.5 ± 1.7 nM; IC50 ([3]; Homo sapiens, MCF7, Table 2, single drug, MCF-7 cells, 48 hours, read-out: IC50): 323 nM
